From ChEMBL document CHEMBL4351016 (Eur J Med Chem, 2019)
Active and inactive are the calls of the source. The rule behind the calls is not given here.

Key:
[1] = test system: LNCaP C4-2; test: Antiproliferative activity against AR-positive human C4-2 cells assessed as cell viability at 40 uM after 72 hrs by resazurin dye based fluorescence assay; assay type: functional; settings: LNCaP C4-2, 72 h, read-out: Activity
[2] = test system: VCaP; test: Antiproliferative activity against AR-positive human VCaP cells assessed as cell viability at 40 uM after 72 hrs by resazurin dye based fluorescence assay; assay type: functional; settings: read-out: Activity
[3] = test system: CWR22R; test: Antiproliferative activity against AR-positive human 22Rv1 cells harboring ARE14 construct assessed as growth inhibition after 72 hrs by resazurin dye based fluorescence assay; assay type: functional; settings: 22Rv1, 72 h
[4] = test system: LNCaP C4-2; test: Antiproliferative activity against AR-positive human C4-2 cells assessed as growth inhibition after 72 hrs by resazurin dye based fluorescence assay; assay type: functional; settings: LNCaP C4-2, 72 h
[5] = test system: PC-3; test: Antiproliferative activity against AR-negative human PC3 cells assessed as growth inhibition after 72 hrs by resazurin dye based fluorescence assay; assay type: functional; settings: PC-3, 72 h
[6] = test system: VCaP; test: Antiproliferative activity against AR-positive human VCaP cells assessed as growth inhibition after 72 hrs by resazurin dye based fluorescence assay; assay type: functional
[7] = test system: PC-3; test: Antiproliferative activity against AR-negative human PC3 cells assessed as cell viability at 40 uM after 72 hrs by resazurin dye based fluorescence assay; assay type: functional; settings: PC-3, 72 h, read-out: Activity
[8] = test system: CWR22R; test: Antiproliferative activity against AR-positive human 22Rv1 cells harboring ARE14 construct assessed as cell viability at 40 uM after 72 hrs by resazurin dye based fluorescence assay; assay type: functional; settings: 22Rv1, 72 h, read-out: Activity
[9] = test system: CWR22R; test: Effect on AR-V7 protein expression in AR-positive human 22Rv1 cells harboring ARE14 construct at 5 uM after 24 hrs by immunoblot analysis; assay type: functional, cell-based
[10] = molecular target: T1, Androgen receptor (Homo sapiens) (UniProt P10275); test: Inhibition of R1881 induced-AR transcriptional activity in AR-positive human 22Rv1 cells harboring ARE14 construct assessed as suppression of NKX3.1 expression at 5 uM after 24 hrs by immunoblot analysis
T1 sequence (whole entry): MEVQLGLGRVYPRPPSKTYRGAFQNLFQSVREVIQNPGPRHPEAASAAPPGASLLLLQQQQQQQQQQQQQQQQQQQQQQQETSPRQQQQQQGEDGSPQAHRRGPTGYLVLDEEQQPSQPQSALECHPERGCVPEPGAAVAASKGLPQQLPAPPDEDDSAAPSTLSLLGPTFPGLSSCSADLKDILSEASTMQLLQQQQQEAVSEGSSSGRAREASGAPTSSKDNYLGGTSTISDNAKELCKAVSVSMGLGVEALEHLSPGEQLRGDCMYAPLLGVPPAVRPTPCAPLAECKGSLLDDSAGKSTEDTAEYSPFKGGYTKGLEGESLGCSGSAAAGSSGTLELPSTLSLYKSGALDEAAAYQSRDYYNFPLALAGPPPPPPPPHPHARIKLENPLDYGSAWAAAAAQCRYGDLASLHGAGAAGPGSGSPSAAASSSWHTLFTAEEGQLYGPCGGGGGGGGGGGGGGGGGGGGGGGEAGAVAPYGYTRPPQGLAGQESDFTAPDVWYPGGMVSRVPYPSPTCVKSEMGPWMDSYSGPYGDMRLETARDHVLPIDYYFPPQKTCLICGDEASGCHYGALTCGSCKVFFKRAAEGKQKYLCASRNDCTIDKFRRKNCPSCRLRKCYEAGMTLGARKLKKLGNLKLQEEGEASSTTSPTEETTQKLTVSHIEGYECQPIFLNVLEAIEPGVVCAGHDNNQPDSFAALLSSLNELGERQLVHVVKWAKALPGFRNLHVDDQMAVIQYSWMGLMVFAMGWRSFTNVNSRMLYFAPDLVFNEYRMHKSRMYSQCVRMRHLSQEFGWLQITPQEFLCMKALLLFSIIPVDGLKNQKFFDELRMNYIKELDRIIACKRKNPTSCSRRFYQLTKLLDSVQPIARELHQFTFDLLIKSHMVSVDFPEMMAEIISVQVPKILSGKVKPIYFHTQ

[11] = molecular target: T2, Androgen receptor (Homo sapiens, UniProt P10275); test: (§1) Inhibition of R1881 induced-AR transcriptional activity in AR-positive human 22Rv1 cells harboring ARE14 construct after 24 hrs by luciferase assay
T2 sequence (P10275 whole entry): T1 sequence (whole entry)

[12] = molecular target: T1, Androgen receptor (Homo sapiens); test: as §1
[13] = molecular target: T1, Androgen receptor (Homo sapiens); test: Inhibition of R1881-stimulated AR transcriptional activity in AR-positive human VCaP cells assessed as decrease in PSA protein expression at 20 uM after 48 hrs by immunoblot analysis; assay type: cell-based
[14] = molecular target: T1, Androgen receptor (Homo sapiens); settings: at 10 µM
Description: Inhibition of R1881 induced-AR transcriptional activity in AR-positive human 22Rv1 cells harboring ARE14 construct at 10 uM after 24 hrs by luciferase assay relative to control

[15] = molecular target: T1, Androgen receptor (Homo sapiens); test: Inhibition of R1881-stimulated AR transcriptional activity in AR-positive human VCaP cells assessed as decrease in NKX3.1 protein expression at 20 uM after 48 hrs by immunoblot analysis; assay type: cell-based
[16] = molecular target: T1, Androgen receptor (Homo sapiens); test: Inhibition of AR transcriptional activity in AR-positive human 22Rv1 cells harboring ARE14 construct assessed as downregulation of NKX3.1 protein expression at 5 uM after 24 hrs by immunoblot analysis
[17] = test system: VCaP; test: Downregulation of AR protein expression in R1881-stimulated AR-positive human VCaP cells at 20 uM after 48 hrs by immunoblot analysis; assay type: functional, cell-based
[18] = test system: CWR22R; test: Induction of apoptosis in R1881-activated AR-positive human 22Rv1 cells harboring ARE14 construct assessed as cleaved PARP level at 5 uM after 24 hrs by immunoblot analysis; assay type: functional, cell-based
[19] = molecular target: T1, Androgen receptor (Homo sapiens); test: Inhibition of R1881-stimulated AR transcriptional activity in AR-positive human VCaP cells assessed as PSA protein expression at 20 uM after 24 hrs by immunoblot analysis; assay type: cell-based
[20] = molecular target: T1, Androgen receptor (Homo sapiens); test: Inhibition of R1881-stimulated AR transcriptional activity in AR-positive human VCaP cells assessed as NKX3.1 protein expression at 20 uM after 24 hrs by immunoblot analysis; assay type: cell-based
[21] = test system: CWR22R; test: Inhibition of colony formation in AR-positive human 22Rv1 cells harboring ARE14 construct at 0.625 to 10 uM incubated for 10 days by crystal violet staining based analysis; assay type: functional, cell-based
[22] = test system: VCaP; test: Induction of apoptosis in R1881-stimulated AR-positive human VCaP cells assessed as caspase-3/7 activation at 20 uM using Ac-DEVD-AMC as substrate after 24 to 72 hrs by fluorescence based microplate reader analysis; assay type: functional, cell-based
[23] = test system: BJ; test: Antiproliferative activity against human BJ cells assessed as growth inhibition after 24 hrs by resazurin dye based fluorescence assay; assay type: functional
[24] = test system: CWR22R; test: Antiproliferative activity against AR-positive human 22Rv1 cells harboring ARE14 construct assessed as growth inhibition after 24 hrs by resazurin dye based fluorescence assay; assay type: functional; settings: 22Rv1, 24 h
[25] = test system: VCaP; test: Induction of apoptosis in R1881-stimulated AR-positive human VCaP cells assessed as PARP cleavage at 20 uM after 24 to 72 hrs by immunoblot analysis; assay type: functional, cell-based
[26] = molecular target: T1, Androgen receptor (Homo sapiens); test: Inhibition of R1881 induced-AR transcriptional activity in AR-positive human 22Rv1 cells harboring ARE14 construct assessed as suppression of PSA expression at 5 uM after 24 hrs by immunoblot analysis
[27] = molecular target: T1, Androgen receptor (Homo sapiens); test: Inhibition of AR transcriptional activity in AR-positive human 22Rv1 cells harboring ARE14 construct assessed as decrease in PSA protein expression at 5 uM after 24 hrs by immunoblot analysis

SMILES | GI50 [3] [µM] | GI50 [4] [µM] | GI50 [5] [µM] | GI50 [6] [µM] | Activity [9] | NKX3.1 protein downregulation (active/not active) [16] | GI50 [23] [µM] | GI50 [24] [µM] | PSA protein decrease (active/not active) [27] | other results
C[C@]12CC[C@H](O)CC1=CC[C@@H]1[C@@H]2CC[C@]2(C)C(n3cnc4ccccc43)=CC[C@@H]12 [GALETERONE] | 37.8 | > 40 | 37.7 | > 40 |  |  |  |  |  | viability at 40 µM [1]: 74.3%; viability at 40 µM [2]: 57.2%
CNC(=O)c1ccc(N2C(=S)N(c3ccc(C#N)c(C(F)(F)F)c3)C(=O)C2(C)C)cc1F [ENZALUTAMIDE] | > 40 | > 40 | > 40 | > 40 |  |  |  |  |  | viability at 40 µM [1]: 91.5%; viability at 40 µM [2]: 61.2%; viability at 40 µM [7]: 74%; viability at 40 µM [8]: 84%
CC(=O)O[C@H]1CC[C@@]2(C)C(=CC[C@@H]3[C@@H]2CC[C@]2(C)c4c(C)nc5[nH]c6ccccc6c5c4C[C@@H]32)C1 | 1.4 | 1.7 | > 100 | 2 | inactive | Active | > 50 | > 50 |  | inhibition [10]: Active; IC50 [11]: 0.315 µM; inhibition [12]: Dose-dependent effect; inhibition [13]: Active; inhibition [14]: 29%; inhibition [15]: Active; inhibition [17]: Active; Activity [18]: inactive; inhibition [19]: inactive; inhibition [20]: inactive; inhibition [21]: Active; Activity [22]: Active; Activity [25]: Active; inhibition [26]: Active
CC(=O)O[C@H]1CC[C@@]2(C)C(=CC[C@@H]3[C@@H]2CC[C@@]2(C)[C@H]3C[C@@H]3C(=O)[C@@]2(C)Nc2nc4cc(C)c(C)cc4n23)C1 | 7.4 | > 50 | > 50 | > 50 | inactive | inactive | > 50 | > 50 | inactive | 
CC(=O)O[C@H]1CC[C@@]2(C)C(=CC[C@H]3[C@@H]4C[C@@H](Nc5nc6ccccc6s5)[C@H](C(C)=O)[C@@]4(C)CC[C@@H]32)C1 | 13.2 | 34.1 | > 50 | > 50 | inactive | inactive | > 50 | > 50 | inactive | 
CC(=O)O[C@H]1CC[C@@]2(C)C(=CC[C@@H]3[C@@H]2CC[C@]2(C)c4c(C)nc5nccn5c4C[C@@H]32)C1 | 26.3 | > 50 | > 50 | > 50 | inactive | inactive | > 50 | > 50 | inactive | 
CC(=O)O[C@H]1CC[C@@]2(C)C(=CC[C@@H]3[C@@H]2CC[C@]2(C)c4c(C)nc5nc6ccccc6n5c4C[C@@H]32)C1 | 7.2 | 22.5 | > 50 | > 50 | inactive | inactive | 44.9 | > 50 | inactive | 
C[C@]12CC[C@H](O)CC1=CC[C@@H]1[C@@H]2CC[C@]2(C)/C(=N/n3cnc4ccccc43)CC[C@@H]12 | > 50 | > 50 | 11.5 | > 50 | inactive | inactive | > 50 | > 50 | inactive | 
